System: Human immunodeficiency virus 1
Assay: Antiviral activity against HIV1 infected in human MT4 cells assessed as inhibition of virus-induced cytopathicity
Type: functional, organism-based
Details: Human immunodeficiency virus 1, MT4

EC50: 300 nM
SMILES: CC(C)=CCn1cc2c(c1)S(=O)(=O)c1cc(Cl)ccc1NC2=O
